Results on 1 molecule are retold here after patent US9492471B2, “Methods of treating a disease or disorder associated with Bruton'S Tyrosine Kinase” (Celgene Avilomics Research, Inc., priority 2013, dated 2016).

Like-named read-outs stand apart in the source and are kept apart here.

What is called inhibition is the change of the read-out against control, counted positive when it falls.

Assay in all cases: HotSpot kinase profiling
Common to all, as to format: biochemical

The target of one assay is T1, BRSK1 (Homo sapiens, UniProt Q8TDC3).
T1 construct: purchased Reaction Biology Corp
T1 sequence (Q8TDC3 1-778): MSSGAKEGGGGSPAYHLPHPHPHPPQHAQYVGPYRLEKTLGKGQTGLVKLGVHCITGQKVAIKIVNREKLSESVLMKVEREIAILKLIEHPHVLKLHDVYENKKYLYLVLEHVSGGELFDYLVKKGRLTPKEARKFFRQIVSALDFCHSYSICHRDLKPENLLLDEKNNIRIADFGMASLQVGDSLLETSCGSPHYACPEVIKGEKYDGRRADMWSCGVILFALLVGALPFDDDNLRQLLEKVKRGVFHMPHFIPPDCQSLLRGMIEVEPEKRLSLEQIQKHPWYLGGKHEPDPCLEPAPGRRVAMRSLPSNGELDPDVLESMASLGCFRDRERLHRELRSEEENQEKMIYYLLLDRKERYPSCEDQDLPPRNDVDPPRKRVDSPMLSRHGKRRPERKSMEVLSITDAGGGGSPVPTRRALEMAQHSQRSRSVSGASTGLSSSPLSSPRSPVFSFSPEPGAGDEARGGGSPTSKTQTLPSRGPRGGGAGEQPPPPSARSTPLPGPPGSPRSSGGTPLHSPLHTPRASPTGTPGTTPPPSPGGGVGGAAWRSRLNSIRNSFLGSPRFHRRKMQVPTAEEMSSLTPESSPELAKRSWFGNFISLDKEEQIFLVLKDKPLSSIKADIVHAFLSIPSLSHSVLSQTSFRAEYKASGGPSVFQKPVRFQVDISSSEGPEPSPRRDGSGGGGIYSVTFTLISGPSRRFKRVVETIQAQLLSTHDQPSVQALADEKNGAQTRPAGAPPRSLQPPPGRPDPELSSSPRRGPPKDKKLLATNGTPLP
In outline:
(§1)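 Radio-isotope P81 filtration format. Substrate + required cofactors in reaction buffer, kinase added, 2 h RT. Stop, wash with 0.1% phosphoric acid, detect. % inhibition vs DMSO; mean of duplicates where repeated.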

For another assay, the target named is T2, CDK1/cyclin A (Homo sapiens, UniProt P06493).
T2 construct: purchased Reaction Biology Corp
T2 sequence (P06493 whole entry): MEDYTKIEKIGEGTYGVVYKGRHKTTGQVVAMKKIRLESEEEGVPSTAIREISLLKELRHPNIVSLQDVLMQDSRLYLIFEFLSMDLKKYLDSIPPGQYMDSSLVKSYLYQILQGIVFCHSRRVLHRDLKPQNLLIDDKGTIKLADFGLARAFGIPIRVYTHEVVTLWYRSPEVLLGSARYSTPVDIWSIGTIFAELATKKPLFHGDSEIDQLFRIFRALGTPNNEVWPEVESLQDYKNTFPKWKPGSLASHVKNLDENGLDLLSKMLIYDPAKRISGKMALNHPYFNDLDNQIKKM
T2 sequence (P20248 whole entry partner): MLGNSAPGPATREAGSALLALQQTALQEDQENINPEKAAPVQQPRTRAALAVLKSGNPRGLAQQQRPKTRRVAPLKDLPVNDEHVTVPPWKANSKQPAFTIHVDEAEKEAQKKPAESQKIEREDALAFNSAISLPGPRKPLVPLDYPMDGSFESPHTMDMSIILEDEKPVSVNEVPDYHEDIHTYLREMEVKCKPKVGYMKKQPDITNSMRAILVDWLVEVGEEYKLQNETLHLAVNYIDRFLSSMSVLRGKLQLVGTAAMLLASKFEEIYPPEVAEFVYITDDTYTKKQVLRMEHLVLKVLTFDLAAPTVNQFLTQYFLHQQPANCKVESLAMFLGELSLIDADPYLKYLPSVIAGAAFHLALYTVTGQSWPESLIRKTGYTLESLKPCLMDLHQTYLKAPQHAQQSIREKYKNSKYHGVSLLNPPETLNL
In outline:
as §1

Another assay deals with T3, GRK6 (Homo sapiens, UniProt P43250).
T3 construct: purchased Reaction Biology Corp
T3 sequence (P43250 whole entry): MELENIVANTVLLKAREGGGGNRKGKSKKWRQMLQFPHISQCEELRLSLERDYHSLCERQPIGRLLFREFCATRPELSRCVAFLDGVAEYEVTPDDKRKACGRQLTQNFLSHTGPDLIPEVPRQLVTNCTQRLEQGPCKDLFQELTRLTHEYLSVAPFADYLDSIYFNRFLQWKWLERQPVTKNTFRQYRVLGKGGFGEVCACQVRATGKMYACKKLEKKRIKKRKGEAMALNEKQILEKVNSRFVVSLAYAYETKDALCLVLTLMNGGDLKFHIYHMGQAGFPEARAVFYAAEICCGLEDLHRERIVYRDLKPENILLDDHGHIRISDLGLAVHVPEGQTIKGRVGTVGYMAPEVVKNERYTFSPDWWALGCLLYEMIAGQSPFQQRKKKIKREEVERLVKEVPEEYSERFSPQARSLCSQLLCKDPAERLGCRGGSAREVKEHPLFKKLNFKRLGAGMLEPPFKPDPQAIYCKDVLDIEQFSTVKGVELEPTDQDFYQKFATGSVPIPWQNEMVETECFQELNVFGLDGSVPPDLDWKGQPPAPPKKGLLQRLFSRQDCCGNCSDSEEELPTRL
In outline: as §1

The target in a further assay is T4, MAPKAPK3 (Homo sapiens, UniProt Q16644).
T4 construct: purchased Reaction Biology Corp
T4 sequence (Q16644 whole entry): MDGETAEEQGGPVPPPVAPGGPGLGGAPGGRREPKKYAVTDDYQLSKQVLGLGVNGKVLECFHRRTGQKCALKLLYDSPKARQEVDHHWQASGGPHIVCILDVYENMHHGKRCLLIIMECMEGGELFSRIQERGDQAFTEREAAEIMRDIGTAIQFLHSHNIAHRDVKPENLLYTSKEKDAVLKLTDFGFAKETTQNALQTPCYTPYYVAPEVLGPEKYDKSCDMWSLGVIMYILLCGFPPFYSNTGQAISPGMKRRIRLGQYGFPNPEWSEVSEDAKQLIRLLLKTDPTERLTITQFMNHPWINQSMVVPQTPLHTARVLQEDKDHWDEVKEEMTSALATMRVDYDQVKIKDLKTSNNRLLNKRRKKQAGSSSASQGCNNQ
In outline: as §1

A further assay has as its target T5, SNARK/NUAK2 (Homo sapiens, UniProt Q9H093).
T5 construct: purchased Reaction Biology Corp
T5 sequence (Q9H093 1-628): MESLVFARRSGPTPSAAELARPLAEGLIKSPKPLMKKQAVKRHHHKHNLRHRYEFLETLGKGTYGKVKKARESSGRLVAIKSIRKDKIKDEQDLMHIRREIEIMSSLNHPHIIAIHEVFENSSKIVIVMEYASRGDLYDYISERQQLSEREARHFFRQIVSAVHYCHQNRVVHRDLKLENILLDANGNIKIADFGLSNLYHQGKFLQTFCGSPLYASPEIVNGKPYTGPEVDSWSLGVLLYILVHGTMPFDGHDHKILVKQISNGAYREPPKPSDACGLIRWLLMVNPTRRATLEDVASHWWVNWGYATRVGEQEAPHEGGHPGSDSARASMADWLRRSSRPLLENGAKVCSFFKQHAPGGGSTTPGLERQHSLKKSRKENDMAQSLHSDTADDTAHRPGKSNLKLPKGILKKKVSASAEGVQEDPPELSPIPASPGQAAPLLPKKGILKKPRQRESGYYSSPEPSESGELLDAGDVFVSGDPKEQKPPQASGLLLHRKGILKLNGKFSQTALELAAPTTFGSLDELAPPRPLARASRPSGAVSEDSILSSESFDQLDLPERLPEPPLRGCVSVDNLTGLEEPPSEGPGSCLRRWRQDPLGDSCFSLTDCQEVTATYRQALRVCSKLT
In outline:
as §1

The next assay concerns the target T6, YES/YES1 (Homo sapiens, UniProt P07947).
T6 construct: purchased Reaction Biology Corp
In outline:
as §1

Setting [1] is: read-out: % Enzyme Activity (relative to DMSO controls) Run 1.
Setting [2] is: read-out: % Enzyme Activity (relative to DMSO controls) Run 2.

T6 sequence (P07947 whole entry): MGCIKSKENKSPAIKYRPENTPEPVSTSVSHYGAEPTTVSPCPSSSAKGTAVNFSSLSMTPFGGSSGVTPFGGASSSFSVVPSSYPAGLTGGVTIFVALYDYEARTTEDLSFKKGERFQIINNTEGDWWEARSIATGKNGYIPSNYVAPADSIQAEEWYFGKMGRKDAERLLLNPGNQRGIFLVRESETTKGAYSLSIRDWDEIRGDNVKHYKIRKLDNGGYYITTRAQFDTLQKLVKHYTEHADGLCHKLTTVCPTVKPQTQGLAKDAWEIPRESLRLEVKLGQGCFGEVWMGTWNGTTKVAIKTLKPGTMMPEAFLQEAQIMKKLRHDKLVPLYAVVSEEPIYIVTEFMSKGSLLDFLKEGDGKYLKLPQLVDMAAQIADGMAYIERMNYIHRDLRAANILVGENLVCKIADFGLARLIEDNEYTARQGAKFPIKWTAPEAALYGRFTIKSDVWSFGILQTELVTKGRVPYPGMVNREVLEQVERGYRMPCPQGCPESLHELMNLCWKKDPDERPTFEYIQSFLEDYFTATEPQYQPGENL

Consider `C=CC(=O)Nc1cccc(Nc2nc(Nc3ccc(OCCOC)c(F)c3)ncc2F)c1` [Compound 2], for which the inhibition at 3 µM is 11.8% against BRSK1; -18% on CDK1/cyclin A; -3.03% at GRK6; -2.45% at MAPKAPK3; 15.7% at SNARK/NUAK2; 81.5% against YES/YES1. In addition, the remaining activity at 3 µM was found to be 87.1% at BRSK1 (setting [1]); 89.4% at BRSK1 (setting [2]); 112% on CDK1/cyclin A (setting [1]); 124% at CDK1/cyclin A (setting [2]); 102% at GRK6 (setting [1]); 104% at GRK6 (setting [2]). Further, the remaining activity at 3 µM on MAPKAPK3 (setting [1]) was 102%; at MAPKAPK3 (setting [2]), 103%; at SNARK/NUAK2 (setting [1]), 83.7%; at SNARK/NUAK2 (setting [2]), 84.9%; on YES/YES1 (setting [1]), 18.7%; on YES/YES1 (setting [2]), 18.3%.
